Measurements taken from the kinase profiling compilation of Christmann-Franck et al. (2016).

What was measured:
Test in all cases: radiometric filter-binding kinase assay
[1] = target: IRAK4 (human) (UniProt Q9NWZ3)
[2] = target: MARK4 (human) (UniProt Q96L34)
[3] = target: JAK2 JH1 JH2 (human) (UniProt O60674)
[4] = target: BTK (human) (UniProt Q06187)
[5] = target: CSNK1D (human) (UniProt P48730)
[6] = target: CSNK2A1 (human) (UniProt P68400)
[7] = target: STK11 CAB39 STRADA (human) (UniProt Q9Y376+Q7RTN6+Q15831)
[8] = target: MAPK14 (human) (UniProt Q16539)
[9] = target: RPS6KA5 KD1 KD2 (human) (UniProt O75582)
[10] = target: NEK2 (human) (UniProt P51955)
[11] = target: CLK2 (human) (UniProt P49760)
[12] = target: YES1 (human) (UniProt P07947)
[13] = target: MAPKAPK3 (human) (UniProt Q16644)
[14] = target: FLT1 (human) (UniProt P17948)
[15] = target: AURKA (human) (UniProt O14965)
[16] = target: RIPK2 (human) (UniProt O43353)
[17] = target: MKNK2 (human) (UniProt Q9HBH9)
[18] = target: MAPK15 (human) (UniProt Q8TD08)
[19] = target: MAP3K9 (human) (UniProt P80192)
[20] = target: SRPK1 (human) (UniProt Q96SB4)
[21] = target: MAP3K1 (human) (UniProt Q13233)
[22] = target: INSR (human) (UniProt P06213)
[23] = target: MAPK11 (human) (UniProt Q15759)
[24] = target: MARK3 (human) (UniProt P27448)
[25] = target: MAPK1 (human) (UniProt P28482)
[26] = target: NEK6 (human) (UniProt Q9HC98)
[27] = target: HIPK1 (human) (UniProt Q86Z02)
[28] = target: PRKCA (human) (UniProt P17252)
[29] = target: NTRK1 (human) (UniProt P04629)
[30] = target: INSRR (human) (UniProt P14616)
[31] = target: HIPK2 (human) (UniProt Q9H2X6)
[32] = test system: RPS6KB1 (human), P23443 [T412E]
[33] = target: DYRK2 (human) (UniProt Q92630)
[34] = target: RPS6KA1 KD1 KD2 (human) (UniProt Q15418)
[35] = test system: AKT2 (human), P31751 [S474D]

DYRK2 (human), sequence (Q92630 whole entry, looked up): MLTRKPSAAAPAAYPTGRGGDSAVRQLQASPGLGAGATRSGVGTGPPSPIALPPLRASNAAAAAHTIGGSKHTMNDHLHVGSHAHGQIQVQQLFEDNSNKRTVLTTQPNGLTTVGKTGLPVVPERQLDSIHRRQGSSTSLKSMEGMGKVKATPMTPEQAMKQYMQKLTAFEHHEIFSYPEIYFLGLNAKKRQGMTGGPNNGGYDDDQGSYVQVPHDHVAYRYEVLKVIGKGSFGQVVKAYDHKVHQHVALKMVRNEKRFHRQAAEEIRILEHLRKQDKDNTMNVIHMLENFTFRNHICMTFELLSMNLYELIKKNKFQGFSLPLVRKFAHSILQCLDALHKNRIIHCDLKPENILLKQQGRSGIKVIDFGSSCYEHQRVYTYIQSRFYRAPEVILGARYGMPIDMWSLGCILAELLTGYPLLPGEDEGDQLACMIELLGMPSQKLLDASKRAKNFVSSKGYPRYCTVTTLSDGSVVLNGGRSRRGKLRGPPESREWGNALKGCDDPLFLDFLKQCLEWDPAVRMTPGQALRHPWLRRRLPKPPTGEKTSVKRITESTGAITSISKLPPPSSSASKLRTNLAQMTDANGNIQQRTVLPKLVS
MAPK15 (human), sequence (Q8TD08 whole entry, looked up): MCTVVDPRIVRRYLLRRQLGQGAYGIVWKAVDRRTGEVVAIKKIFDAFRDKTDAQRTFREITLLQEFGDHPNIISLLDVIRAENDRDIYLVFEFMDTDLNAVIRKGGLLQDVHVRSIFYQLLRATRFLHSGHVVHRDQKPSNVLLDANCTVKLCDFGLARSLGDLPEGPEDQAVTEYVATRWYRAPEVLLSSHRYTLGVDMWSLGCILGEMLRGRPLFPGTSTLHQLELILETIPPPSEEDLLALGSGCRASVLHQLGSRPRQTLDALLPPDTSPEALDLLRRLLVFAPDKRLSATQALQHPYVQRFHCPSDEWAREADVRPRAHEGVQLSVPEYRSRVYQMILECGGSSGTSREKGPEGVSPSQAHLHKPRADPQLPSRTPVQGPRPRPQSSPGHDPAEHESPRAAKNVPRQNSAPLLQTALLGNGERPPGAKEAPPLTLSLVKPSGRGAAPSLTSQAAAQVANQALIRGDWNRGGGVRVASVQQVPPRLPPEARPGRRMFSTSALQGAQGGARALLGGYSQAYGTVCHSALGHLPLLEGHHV
BTK (human), sequence (Q06187 whole entry, looked up): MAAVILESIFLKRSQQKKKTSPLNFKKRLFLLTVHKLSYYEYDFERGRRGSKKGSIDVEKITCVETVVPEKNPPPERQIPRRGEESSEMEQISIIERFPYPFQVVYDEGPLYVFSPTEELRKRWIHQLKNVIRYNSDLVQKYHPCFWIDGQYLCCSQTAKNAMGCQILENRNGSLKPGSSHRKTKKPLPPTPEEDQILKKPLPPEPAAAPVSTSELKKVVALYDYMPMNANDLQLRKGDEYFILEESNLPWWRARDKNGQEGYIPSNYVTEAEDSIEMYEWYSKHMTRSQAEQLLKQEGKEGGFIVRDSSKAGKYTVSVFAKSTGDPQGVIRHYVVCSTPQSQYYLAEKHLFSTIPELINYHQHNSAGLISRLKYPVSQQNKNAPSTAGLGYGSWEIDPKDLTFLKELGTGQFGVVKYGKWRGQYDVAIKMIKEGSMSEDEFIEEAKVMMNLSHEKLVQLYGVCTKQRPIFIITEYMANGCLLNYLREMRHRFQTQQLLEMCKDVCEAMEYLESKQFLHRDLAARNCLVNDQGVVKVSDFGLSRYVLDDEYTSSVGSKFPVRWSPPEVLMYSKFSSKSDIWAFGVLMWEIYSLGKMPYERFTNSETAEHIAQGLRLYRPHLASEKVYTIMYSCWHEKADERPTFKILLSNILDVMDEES
MAPKAPK3 (human), sequence (Q16644 whole entry, looked up): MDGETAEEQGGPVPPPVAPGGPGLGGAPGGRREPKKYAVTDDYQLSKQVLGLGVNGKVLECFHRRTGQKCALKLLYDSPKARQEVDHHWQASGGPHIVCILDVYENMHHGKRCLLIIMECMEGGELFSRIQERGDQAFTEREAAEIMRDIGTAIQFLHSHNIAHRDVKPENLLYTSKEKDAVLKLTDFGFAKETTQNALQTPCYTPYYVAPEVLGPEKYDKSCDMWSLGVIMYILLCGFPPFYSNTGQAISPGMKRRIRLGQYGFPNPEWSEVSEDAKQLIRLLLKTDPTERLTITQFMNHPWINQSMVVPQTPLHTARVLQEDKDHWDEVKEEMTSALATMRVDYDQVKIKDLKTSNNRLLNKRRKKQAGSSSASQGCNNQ
NEK6 (human), sequence (Q9HC98 whole entry, looked up): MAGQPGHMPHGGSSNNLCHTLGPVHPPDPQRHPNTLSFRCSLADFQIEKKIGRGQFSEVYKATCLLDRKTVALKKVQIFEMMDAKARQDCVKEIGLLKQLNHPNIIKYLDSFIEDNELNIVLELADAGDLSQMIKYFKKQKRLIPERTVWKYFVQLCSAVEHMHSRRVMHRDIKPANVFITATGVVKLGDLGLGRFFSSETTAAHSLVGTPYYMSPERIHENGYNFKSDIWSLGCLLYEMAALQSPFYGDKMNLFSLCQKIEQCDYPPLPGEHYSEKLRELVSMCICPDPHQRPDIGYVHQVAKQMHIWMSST
CSNK2A1 (human), sequence (P68400 whole entry, looked up): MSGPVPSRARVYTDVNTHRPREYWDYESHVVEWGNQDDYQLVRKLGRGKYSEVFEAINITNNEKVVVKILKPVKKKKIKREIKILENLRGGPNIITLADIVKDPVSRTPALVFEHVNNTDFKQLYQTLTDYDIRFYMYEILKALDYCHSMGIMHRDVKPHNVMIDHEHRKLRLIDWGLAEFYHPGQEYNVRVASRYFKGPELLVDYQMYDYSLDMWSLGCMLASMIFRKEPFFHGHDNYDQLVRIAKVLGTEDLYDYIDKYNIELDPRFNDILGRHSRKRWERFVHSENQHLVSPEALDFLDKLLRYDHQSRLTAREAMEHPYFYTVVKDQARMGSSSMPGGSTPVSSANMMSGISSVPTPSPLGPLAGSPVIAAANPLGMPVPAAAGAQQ
INSRR (human), sequence (P14616 whole entry, looked up): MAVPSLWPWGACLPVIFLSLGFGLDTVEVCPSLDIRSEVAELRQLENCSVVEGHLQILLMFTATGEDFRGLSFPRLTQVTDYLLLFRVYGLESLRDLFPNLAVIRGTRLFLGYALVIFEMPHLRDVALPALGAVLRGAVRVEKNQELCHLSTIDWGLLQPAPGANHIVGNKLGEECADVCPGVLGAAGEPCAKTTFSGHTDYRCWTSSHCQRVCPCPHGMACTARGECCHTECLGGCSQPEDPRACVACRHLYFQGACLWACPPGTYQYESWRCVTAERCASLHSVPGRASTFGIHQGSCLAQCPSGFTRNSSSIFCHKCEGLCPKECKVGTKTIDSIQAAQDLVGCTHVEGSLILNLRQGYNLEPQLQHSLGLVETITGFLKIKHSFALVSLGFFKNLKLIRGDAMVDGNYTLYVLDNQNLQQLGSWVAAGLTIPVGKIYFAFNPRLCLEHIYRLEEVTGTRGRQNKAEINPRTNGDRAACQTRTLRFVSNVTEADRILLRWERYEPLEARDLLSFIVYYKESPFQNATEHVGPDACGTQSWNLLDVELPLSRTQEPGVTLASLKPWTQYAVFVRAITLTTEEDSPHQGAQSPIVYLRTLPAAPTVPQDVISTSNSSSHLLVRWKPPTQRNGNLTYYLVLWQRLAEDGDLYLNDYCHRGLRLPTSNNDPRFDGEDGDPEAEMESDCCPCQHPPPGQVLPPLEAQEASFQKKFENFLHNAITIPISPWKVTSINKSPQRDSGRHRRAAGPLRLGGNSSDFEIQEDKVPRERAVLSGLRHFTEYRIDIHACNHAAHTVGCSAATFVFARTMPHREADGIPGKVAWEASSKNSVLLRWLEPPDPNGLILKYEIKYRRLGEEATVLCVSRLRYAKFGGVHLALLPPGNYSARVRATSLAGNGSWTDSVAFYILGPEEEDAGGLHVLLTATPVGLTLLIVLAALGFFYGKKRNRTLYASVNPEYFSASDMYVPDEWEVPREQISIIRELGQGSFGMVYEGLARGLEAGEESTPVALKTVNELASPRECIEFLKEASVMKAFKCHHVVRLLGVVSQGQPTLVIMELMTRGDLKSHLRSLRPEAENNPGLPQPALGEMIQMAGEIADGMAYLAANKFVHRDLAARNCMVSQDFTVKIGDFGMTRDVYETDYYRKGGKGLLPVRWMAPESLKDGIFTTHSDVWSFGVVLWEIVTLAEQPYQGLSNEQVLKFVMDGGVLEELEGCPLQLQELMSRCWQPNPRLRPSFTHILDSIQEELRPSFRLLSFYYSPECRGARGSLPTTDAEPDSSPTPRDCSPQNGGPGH

residual activity ([1]; compound 0.1 µM): 95%
residual activity ([1]; compound 1.0 µM): 83%
residual activity ([2]; compound 0.1 µM): 33%
residual activity ([2]; compound 1.0 µM): 29%
residual activity ([3]; compound 0.1 µM): 41%
residual activity ([3]; compound 1.0 µM): 14%
residual activity ([4]; compound 0.1 µM): 89%
residual activity ([4]; compound 1.0 µM): 77%
residual activity ([5]; compound 0.1 µM): 99%
residual activity ([5]; compound 1.0 µM): 66%
residual activity ([6]; compound 0.1 µM): 86%
residual activity ([6]; compound 1.0 µM): 86%
residual activity ([7]; compound 0.1 µM): 109%
residual activity ([7]; compound 1.0 µM): 118%
residual activity ([8]; compound 0.1 µM): 100%
residual activity ([8]; compound 1.0 µM): 107%
residual activity ([9]; compound 0.1 µM): 98%
residual activity ([9]; compound 1.0 µM): 68%
residual activity ([10]; compound 0.1 µM): 107%
residual activity ([10]; compound 1.0 µM): 97%
residual activity ([11]; compound 0.1 µM): 63%
residual activity ([11]; compound 1.0 µM): 21%
residual activity ([12]; compound 0.1 µM): 113%
residual activity ([12]; compound 1.0 µM): 71%
residual activity ([13]; compound 0.1 µM): 80%
residual activity ([13]; compound 1.0 µM): 104%
residual activity ([14]; compound 0.1 µM): 87%
residual activity ([14]; compound 1.0 µM): 74%
residual activity ([15]; compound 0.1 µM): 87%
residual activity ([15]; compound 1.0 µM): 29%
residual activity ([16]; compound 0.1 µM): 109%
residual activity ([16]; compound 1.0 µM): 112%
residual activity ([17]; compound 0.1 µM): 80%
residual activity ([17]; compound 1.0 µM): 50%
residual activity ([19]; compound 0.1 µM): 40%
residual activity ([19]; compound 1.0 µM): 16%
residual activity ([20]; compound 0.1 µM): 86%
residual activity ([20]; compound 1.0 µM): 101%
residual activity ([21]; compound 0.1 µM): 115%
residual activity ([21]; compound 1.0 µM): 137%
residual activity ([22]; compound 0.1 µM): 97%
residual activity ([22]; compound 1.0 µM): 100%
residual activity ([23]; compound 0.1 µM): 103%
residual activity ([23]; compound 1.0 µM): 114%
residual activity ([24]; compound 0.1 µM): 15%
residual activity ([24]; compound 1.0 µM): 1%
residual activity ([25]; compound 0.1 µM): 111%
residual activity ([25]; compound 1.0 µM): 110%
residual activity ([26]; compound 0.1 µM): 94%
residual activity ([26]; compound 1.0 µM): 90%
residual activity ([27]; compound 0.1 µM): 96%
residual activity ([27]; compound 1.0 µM): 94%
residual activity ([28]; compound 0.1 µM): 79%
residual activity ([28]; compound 1.0 µM): 93%
residual activity ([29]; compound 0.1 µM): 84%
residual activity ([29]; compound 1.0 µM): 47%
residual activity ([30]; compound 0.1 µM): 107%
residual activity ([30]; compound 1.0 µM): 118%
residual activity ([31]; compound 0.1 µM): 95%
residual activity ([31]; compound 1.0 µM): 95%
residual activity ([32]; compound 0.1 µM): 101%
residual activity ([32]; compound 1.0 µM): 101%
residual activity ([33]; compound 0.1 µM): 92%
residual activity ([33]; compound 1.0 µM): 101%
residual activity ([34]; compound 0.1 µM): 73%
residual activity ([34]; compound 1.0 µM): 34%
residual activity ([35]; compound 0.1 µM): 99%
residual activity ([35]; compound 1.0 µM): 108%
SMILES: O=C(NCCCNc1nc(Nc2cccc(CN3CCOCC3)c2)ncc1C1CC1)C1CCC1
residual activity ([18]; compound 0.1 µM): 81%
residual activity ([18]; compound 1.0 µM): 34%
